For this assay, the system named is HIV-1 (NL4-3 strain). Briefly: Assay for Inhibition of HIV Replication (kinetic assay, MT4-gag-GFP reporter cell line; VIKING). It counts as cell-based. The procedure, abridged:
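MT4-gag-GFP cells infected with HIV-1 NL4-3 at low MOI for 24 h were seeded with compound (0.4% DMSO) in medium with 0%, 10% or 100% normal human serum. GFP-positive cells were counted at 24 and 48 h, and R0 was the 48 h/24 h ratio. Inhibition was scaled to DMSO and triple-drug controls, and IC50 came from 4-parameter fits.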

[1] abbreviates: MT4-GFP cells infected with HIV-1 NL4-3, 0% normal human serum (NHS), read-out: VIKING IP50 (nM) with 0% NHS.
[2] abbreviates: MT4-GFP cells infected with HIV-1 NL4-3, 100% normal human serum (NHS), read-out: VIKING IP50 (nM) with 100% NHS.
Setting [3] is: Human immunodeficiency virus 1, NL43, MT4-GFP cells infected with HIV-1 NL4-3, 0% normal human serum (NHS), read-out: VIKING IP50 (nM) with 0% NHS.
The mark [4] stands for this setting: Human immunodeficiency virus 1, NL43, MT4-GFP cells infected with HIV-1 NL4-3, 100% normal human serum (NHS), read-out: VIKING IP50 (nM) with 100% NHS.

Molecules are shown by their SMILES. Read-outs that look alike come from different tables or passages of the source.

On to `O=C(NCc1cccc(F)c1F)c1c2n3c(c(O)c1=O)C(=O)N1C4CCC(C4)OC1C3CC2` (stereo not drawn) [Compound 166], for which the IC50 under setting [1] was found to be 5.39 nM and the IC50 under setting [2] is 50.6 nM.

On to `O=C(NCc1cccc(F)c1F)c1c2n3c(c(O)c1=O)C(=O)N1C4CCC(C4)OC1C3CC2` (stereo not drawn) [Compound 167], for which the IC50 under setting [1] turned out to be 3.78 nM and the IC50 under setting [2] worked out at 3390 nM.

Consider `O=C(NCc1c(F)cc(F)cc1F)c1c2n3c(c(O)c1=O)C(=O)N1C4CCC(C4)OC1C3CC2` (stereo not drawn) [Compound 168], for which the IC50 worked out at 3.72 nM under setting [3] and 1620 nM under setting [2].

With `O=C(NCc1c(F)cc(F)cc1F)c1c2n3c(c(O)c1=O)C(=O)N1C4CCC(C4)OC1C3CC2` (stereo not drawn) [Compound 169], the IC50 was found to be 2.71 nM under setting [1] and 42.9 nM under setting [2].

In the case of `O=C(NCc1c(F)cc(F)cc1F)c1c2n3c(c(O)c1=O)C(=O)N1C4CCC(C4)OC1C3CC2` (stereo not drawn) [Compound 170], the IC50 by setting is: under setting [1], 2.59 nM; under setting [2], 5360 nM.

In the case of `O=C(NCc1c(F)cc(F)cc1F)c1c2n3c(c(O)c1=O)C(=O)N1C4CCC(C4)OC1C3CC2` (stereo not drawn) [Compound 171], the IC50 is, setting by setting: under setting [1], 2.82 nM; under setting [2], 74.6 nM.

Consider `CCNC1C[C@@H]2[C@H]3OC4CCC(C4)N3C(=O)c3c(O)c(=O)c(C(=O)NCc4ccc(F)cc4F)c1n32` (stereo partly drawn) [Compound 174], for which the IC50 stood at 30.2 nM under setting [3] and 114 nM under setting [4].

In the case of `CCNC1C[C@@H]2[C@H]3OC4CCC(C4)N3C(=O)c3c(O)c(=O)c(C(=O)NCc4ccc(F)cc4F)c1n32` (stereo partly drawn) [Compound 175], the IC50 was determined as 20.8 nM under setting [1] and 78.8 nM under setting [2].

Consider `CCNC1C[C@H]2[C@H]3OC4CCC(C4)N3C(=O)c3c(O)c(=O)c(C(=O)NCc4ccc(F)cc4F)c1n32` (stereo partly drawn) [Compound 176], for which the IC50 reads like this: under setting [3], 16.8 nM; under setting [4], 129 nM.

Take `CCNC1C[C@H]2[C@H]3OC4CCC(C4)N3C(=O)c3c(O)c(=O)c(C(=O)NCc4ccc(F)cc4F)c1n32` (stereo partly drawn) [Compound 177]: the IC50 under setting [1] came out at 11.2 nM and the IC50 under setting [2] was 191 nM.

As to `CCNC1CC2C3OCCCN3C(=O)c3c(O)c(=O)c(C(=O)NCc4c(F)cc(F)cc4F)c1n32` (stereo not drawn) [Compound 178], the IC50 reads like this: under setting [1], 16 nM; under setting [2], 6090 nM.

Regarding `CCNC1CC2C3OCCCN3C(=O)c3c(O)c(=O)c(C(=O)NCc4c(F)cc(F)cc4F)c1n32` (stereo not drawn) [Compound 180], the IC50 by setting is: under setting [1], 3.57 nM; under setting [2], 20.1 nM.

On to `CCNC1CC2C3OCCCN3C(=O)c3c(O)c(=O)c(C(=O)NCc4c(F)cc(F)cc4F)c1n32` (stereo not drawn) [Compound 181], for which the IC50 worked out at 6.41 nM under setting [1] and 29.9 nM under setting [2].

Turning to `CCNC1CC2C3OCCCN3C(=O)c3c(O)c(=O)c(C(=O)NCc4c(F)cc(F)cc4F)c1n32` (stereo not drawn) [Compound 182], the IC50 runs as follows: under setting [1], 6.63 nM; under setting [2], 44.9 nM.

For `CCNC1CC2C3OCCCN3C(=O)c3c(O)c(=O)c(C(=O)NCc4c(F)cc(F)cc4F)c1n32` (stereo not drawn) [Compound 183], the IC50 under setting [1] was 13.3 nM and the IC50 under setting [2] was 3570 nM.

Consider `CCNC1CC2C3OCCCN3C(=O)c3c(O)c(=O)c(C(=O)NCc4c(F)cc(F)cc4F)c1n32` (stereo not drawn) [Compound 184], for which the IC50 reads like this: under setting [1], 5 nM; under setting [2], 167 nM.

On to `CCNC1CC2C3OCCCN3C(=O)c3c(O)c(=O)c(C(=O)NCc4cccc(F)c4F)c1n32` (stereo not drawn) [Compound 185], for which the IC50 is, setting by setting: under setting [3], 11.7 nM; under setting [4], 1160 nM.

Take `CCNC1CC2C3OCCCN3C(=O)c3c(O)c(=O)c(C(=O)NCc4cccc(F)c4F)c1n32` (stereo not drawn) [Compound 186]: the IC50 was found to be 9.86 nM under setting [1] and 36.5 nM under setting [2].

As for `CCNC1CC2C3OCCCN3C(=O)c3c(O)c(=O)c(C(=O)NCc4cccc(F)c4F)c1n32` (stereo not drawn) [Compound 187], the IC50 under setting [1] was 3.51 nM and the IC50 under setting [2] amounted to 49.1 nM.

Regarding `CCNC1CC2C3OCCCN3C(=O)c3c(O)c(=O)c(C(=O)NCc4cccc(F)c4F)c1n32` (stereo not drawn) [Compound 188], the IC50 runs as follows: under setting [1], 16.3 nM; under setting [2], 462 nM.

On to `CCNC1CC2C3OCCCN3C(=O)c3c(O)c(=O)c(C(=O)NCc4cccc(F)c4F)c1n32` (stereo not drawn) [Compound 189], for which the IC50 by setting is: under setting [1], 11 nM; under setting [2], 3870 nM.

For `CCNC1CC2C3OCCCN3C(=O)c3c(O)c(=O)c(C(=O)NCc4cccc(F)c4F)c1n32` (stereo not drawn) [Compound 190], the IC50 stood at 5.26 nM under setting [1] and 66.4 nM under setting [2].

`CCNC1CC2C3OCCCN3C(=O)c3c(O)c(=O)c(C(=O)NCc4cccc(F)c4F)c1n32` (stereo not drawn) [Compound 191]: the IC50 under setting [1] amounted to 12.6 nM and the IC50 under setting [2] is 63.6 nM.

In the case of `CCNC1CC2C3OCCCN3C(=O)c3c(O)c(=O)c(C(=O)NCc4cccc(F)c4F)c1n32` (stereo not drawn) [Compound 192], the IC50 under setting [1] was 8.76 nM and the IC50 under setting [2] is 92.3 nM.

As for `CCNC1CC2C3OCCCN3C(=O)c3c(O)c(=O)c(C(=O)NCc4cccc(Cl)c4F)c1n32` (stereo not drawn) [Compound 193], the IC50 runs as follows: under setting [1], 7.89 nM; under setting [2], 2910 nM.

As for `CCNC1CC2C3OCCCN3C(=O)c3c(O)c(=O)c(C(=O)NCc4cccc(Cl)c4F)c1n32` (stereo not drawn) [Compound 194], the IC50 under setting [1] is 15.7 nM and the IC50 under setting [2] was found to be 35.1 nM.

On to `CCNC1CC2C3OCCCN3C(=O)c3c(O)c(=O)c(C(=O)NCc4cccc(Cl)c4F)c1n32` (stereo not drawn) [Compound 195], for which the IC50 under setting [1] was 12.4 nM and the IC50 under setting [2] came to 25.7 nM.

Take `CCNC1CC2C3OCCCN3C(=O)c3c(O)c(=O)c(C(=O)NCc4cccc(Cl)c4F)c1n32` (stereo not drawn) [Compound 196]: the IC50 under setting [1] was 15.3 nM and the IC50 under setting [2] stood at 883 nM.

As to `CCNC1CC2C3OCCCN3C(=O)c3c(O)c(=O)c(C(=O)NCc4cccc(Cl)c4F)c1n32` (stereo not drawn) [Compound 197], the IC50 under setting [1] was determined as 14 nM and the IC50 under setting [2] is 15100 nM.

As to `CCNC1CC2C3OCCCN3C(=O)c3c(O)c(=O)c(C(=O)NCc4cccc(Cl)c4F)c1n32` (stereo not drawn) [Compound 198], the IC50 runs as follows: under setting [1], 5.29 nM; under setting [2], 96.9 nM.

As to `CCNC1CC2C3OCCCN3C(=O)c3c(O)c(=O)c(C(=O)NCc4cccc(Cl)c4F)c1n32` (stereo not drawn) [Compound 199], the IC50 reads like this: under setting [1], 7.12 nM; under setting [2], 42.9 nM.

Take `CCNC1CC2C3OCCCN3C(=O)c3c(O)c(=O)c(C(=O)NCc4cccc(Cl)c4F)c1n32` (stereo not drawn) [Compound 200]: the IC50 is, setting by setting: under setting [1], 10.1 nM; under setting [2], 67.3 nM.

On to `CCNC1CC2C3OCCCN3C(=O)c3c(O)c(=O)c(C(=O)NCc4ccc(F)cc4F)c1n32` (stereo not drawn) [Compound 201], for which the IC50 runs as follows: under setting [1], 8.98 nM; under setting [2], 2060 nM.

As to `CCNC1CC2C3OCCCN3C(=O)c3c(O)c(=O)c(C(=O)NCc4ccc(F)cc4F)c1n32` (stereo not drawn) [Compound 202], the IC50 under setting [1] stood at 7.73 nM and the IC50 under setting [2] worked out at 39.4 nM.

As to `CCNC1CC2C3OCCCN3C(=O)c3c(O)c(=O)c(C(=O)NCc4ccc(F)cc4F)c1n32` (stereo not drawn) [Compound 203], the IC50 was 6.47 nM under setting [1] and 25.8 nM under setting [2].

With `CCNC1CC2C3OCCCN3C(=O)c3c(O)c(=O)c(C(=O)NCc4ccc(F)cc4F)c1n32` (stereo not drawn) [Compound 204], the IC50 by setting is: under setting [1], 15.7 nM; under setting [2], 4830 nM.

With `CCNC1CC2C3OCCCN3C(=O)c3c(O)c(=O)c(C(=O)NCc4ccc(F)cc4F)c1n32` (stereo not drawn) [Compound 205], the IC50 under setting [1] turned out to be 11.3 nM and the IC50 under setting [2] amounted to 116 nM.

In the case of `CCNC1CC2C3OCCCN3C(=O)c3c(O)c(=O)c(C(=O)NCc4ccc(F)cc4F)c1n32` (stereo not drawn) [Compound 206], the IC50 under setting [1] stood at 7.11 nM and the IC50 under setting [2] is 51.6 nM.

Regarding `CCNC1CC2C3OCCCN3C(=O)c3c(O)c(=O)c(C(=O)NCc4ccc(F)cc4F)c1n32` (stereo not drawn) [Compound 207], the IC50 reads like this: under setting [1], 5.21 nM; under setting [2], 140 nM.

Source of the values: US10829499B2, “Tetracyclic heterocycle compounds useful as HIV integrase inhibitors” (MERCK SHARP & DOHME CORP., priority 2016, dated 2020).
